Assay results: US20040001827A1, “Serum albumin binding peptides for tumor targeting” (priority 2002, published 2004)
Where two headings read alike, the source gives them in different places. Where a SMILES comes first, the peptide text is derived from it. Bridges are numbered along the chain shown (N, C = ends).

Target: T1, rabbit albumin (Oryctolagus cuniculus, UniProt P49065)
T1 construct: purchased Sigma, St. Louis Mo
Assay: SA08b binding (peptide competition) assay, rabbit albumin
Settings: for improvement in IC50 relative to core sequence (SA34 and SA19): rabbit albumin
Description: Plates were blocked as described above.
Peptides corresponding to identified phage sequences were synthesized and their affinity for rat, rabbit or mouse albumin measured using the SA08b binding assay.

T1 sequence (P49065 25-608): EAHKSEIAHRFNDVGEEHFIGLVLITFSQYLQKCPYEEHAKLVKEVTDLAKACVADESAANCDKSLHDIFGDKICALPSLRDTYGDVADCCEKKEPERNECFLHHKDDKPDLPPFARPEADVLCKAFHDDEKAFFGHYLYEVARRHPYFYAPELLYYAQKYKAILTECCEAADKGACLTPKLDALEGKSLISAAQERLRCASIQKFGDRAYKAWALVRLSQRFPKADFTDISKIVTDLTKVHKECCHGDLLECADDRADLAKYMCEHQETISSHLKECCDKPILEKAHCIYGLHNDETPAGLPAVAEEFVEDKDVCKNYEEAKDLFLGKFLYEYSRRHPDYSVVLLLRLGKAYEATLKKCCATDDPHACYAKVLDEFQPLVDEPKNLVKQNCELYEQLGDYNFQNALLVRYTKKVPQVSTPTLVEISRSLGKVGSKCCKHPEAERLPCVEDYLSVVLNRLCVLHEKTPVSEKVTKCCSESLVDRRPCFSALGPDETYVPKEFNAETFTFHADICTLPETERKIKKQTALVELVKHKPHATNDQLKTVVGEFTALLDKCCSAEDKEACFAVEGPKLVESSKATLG

Compound	IC50	improvement in IC50 relative to core sequence (SA34 and SA19)	further results
CC(=O)N[C@H]1CSSC[C@@H](C(=O)N[C@@H](CC(C)C)C(=O)N[C@@H](Cc2c[nH]c3ccccc23)C(=O)N[C@@H](CCC(=O)O)C(=O)N[C@@H](CC(=O)O)C(N)=O)NC(=O)CNC(=O)[C@H](Cc2c[nH]c3ccccc23)NC(=O)[C@H](CCCNC(=N)N)NC(=O)[C@@H]2CCCN2C(=O)[C@H](CC(C)C)NC1=O [SA28] (Ac-CLPRWGCLWED-NH2; disulfide 1-7)	> 400 µM	–	–
CC[C@H](C)[C@H](NC(C)=O)C(=O)N[C@H]1CSSC[C@@H](C(N)=O)NC(=O)CNC(=O)[C@H](Cc2c[nH]c3ccccc23)NC(=O)[C@H](CCCNC(=N)N)NC(=O)[C@@H]2CCCN2C(=O)[C@H](CC(C)C)NC1=O [SA36] (Ac-ICLPRWGC-NH2; disulfide 2-8)	–	–	IC50 (Table 9, rabbit albumin, peptide truncation series, read-out: IC50): > 250 µM
CC[C@H](C)[C@H](NC(=O)[C@H](CC(C)C)NC(=O)[C@H](CCCNC(=N)N)NC(C)=O)C(=O)N[C@@H](CCC(=O)O)C(=O)N[C@@H](CC(=O)O)C(=O)N[C@H](C(=O)N[C@H]1CSSC[C@@H](C(=O)N[C@@H](CC(C)C)C(=O)N[C@@H](Cc2c[nH]c3ccccc23)C(=O)N[C@@H](CCC(=O)O)C(=O)N[C@@H](CC(=O)O)C(N)=O)NC(=O)CNC(=O)[C@H](Cc2c[nH]c3ccccc23)NC(=O)[C@H](CCCNC(=N)N)NC(=O)[C@@H]2CCCN2C(=O)[C@H](CC(C)C)NC1=O)[C@@H](C)CC [SA22] (Ac-RLIEDICLPRWGCLWED-NH2; disulfide 7-13)	–	60 fold	–
CC[C@H](C)[C@H](NC(=O)[C@H](CC(=O)O)NC(C)=O)C(=O)N[C@H]1CSSC[C@@H](C(=O)N[C@@H](CC(C)C)C(=O)N[C@@H](Cc2c[nH]c3ccccc23)C(=O)N[C@@H](CCC(=O)O)C(=O)N[C@@H](CC(=O)O)C(N)=O)NC(=O)CNC(=O)[C@H](Cc2c[nH]c3ccccc23)NC(=O)[C@H](CCCNC(=N)N)NC(=O)[C@@H]2CCCN2C(=O)[C@H](CC(C)C)NC1=O [SA26] (Ac-DICLPRWGCLWED-NH2; disulfide 3-9)	–	about 8.6 fold	–
CC[C@H](C)[C@H](NC(=O)[C@H](CC(=O)O)NC(C)=O)C(=O)N[C@H]1CSSC[C@@H](C(=O)N[C@@H](CC(C)C)C(N)=O)NC(=O)CNC(=O)[C@H](Cc2c[nH]c3ccccc23)NC(=O)[C@H](CCCNC(=N)N)NC(=O)[C@@H]2CCCN2C(=O)[C@H](CC(C)C)NC1=O [SA34] (Ac-DICLPRWGCL-NH2; disulfide 3-9)	~25 µM	–	–
CC[C@H](C)[C@H](NC(=O)[C@H](CC(C)C)NC(=O)[C@H](CCCNC(=N)N)NC(C)=O)C(=O)N[C@@H](CCC(=O)O)C(=O)N[C@@H](CC(=O)O)C(=O)N[C@H](C(=O)N[C@H]1CSSC[C@@H](C(=O)N[C@@H](CC(C)C)C(N)=O)NC(=O)CNC(=O)[C@H](Cc2c[nH]c3ccccc23)NC(=O)[C@H](CCCNC(=N)N)NC(=O)[C@@H]2CCCN2C(=O)[C@H](CC(C)C)NC1=O)[C@@H](C)CC [SA33] (Ac-RLIEDICLPRWGCL-NH2; disulfide 7-13)	–	approximately 6 fold	–
